# Patent US7605168B2 (Plexxikon, Inc., priority 2004, dated 2009)
# Assays:
# [1] = target: T1, PDE4B: catalytic domain of human PDE4B from S152-S528 (Homo sapiens, UniProt Q07343); test: PDE4 IC50 determination by Scintillation Proximity Assay (SPA), PDE4B catalytic domain; format: biochemical; settings: [3H]cAMP SPA, 30 min at 30° C.
# T1 construct: The catalytic domain of human PDE4B from S152-S528; His6 (N, cleaved yes); thrombin cleavage site (N, cleaved yes); made in house; host or cells: E. coli BL21 (DE3) RIL
# Experimental: (§1) IC50s were determined by Scintillation Proximity Assay (SPA). The principle of the assay is based on the fact that cAMP, the PDE4 substrate, binds weakly to Yittrium Silicate SPA beads, whereas AMP, the product of PDE4 hydrolysis binds strongly. Thus, the extent of PDE4 hydrolysis of a sample of [^3H]cAMP can be measured because only the [^3H]AMP produced by PDE4 hydrolysis will bind to the SPA beads and produce a scintillation signal.
# Enzyme was stored in 50% glycerol at −20°.
# (§2) In addition to the compound dilutions, each assay plate contained control wells with 1 μl of DMSO (to define 0% enzyme inhibition) or 1 μl of 200 μM roflumilast (to define 100% enzyme inhibition). Using a Beckman FX robot, 10 μl of [^3H] cAMP (Amersham TRK559) at […] in assay buffer (50 mM Tris, pH 7.5; 8.3 mM MgCl; 1.7 mM EGTA; 0.01% BSA) was transferred to each assay well. Next, 10 μl of PDE4 enzyme in assay buffer was added and the plates were shaken for 30 s. at 1000 rpm to start the cAMP hydrolysis reaction. The concentrations of enzyme used were: PDE4B, 80 ng/ml; PDE4D, 4 ng/ml; PDE4B2, 2.5 μl of 50% glycerol stock/ml; PDE4D5 0.083 μl of 50% glycerol stock/ml. Assay plates were covered and incubated for 30 min. at 30° C. Reactions were stopped by robotic addition of 10 μl of 5 mg/ml SPA beads (Amersham RPNQ0013) in 18 mM ZnSO4. The assay plates were covered with clear plastic film, centrifuged for 1 min. at 1000 RPM to settle the SPA beads, and counted using a Wallac TriLux scintillation counter. IC50's were calculated from the raw assay data by non-linear regression curve fitting using the Assay Explorer software package from MDL.
# [2] = target: T2, PDE4B2: full-length human PDE4B2 isozyme (Homo sapiens, UniProt Q07343); test: PDE4 IC50 determination by Scintillation Proximity Assay (SPA), full-length PDE4B2; format: biochemical; settings: cell lysate, [3H]cAMP SPA
# T2 construct: made in house; host or cells: baculovirus infected insect cells (pFastBacHT)
# Experimental: (§3) The enzyme was not purified from the cell lysates, so enzyme concentrations were not determined. Enzyme was stored in 50% glycerol at −20°.
# as §1, §2
# [3] = target: T3, PDE4D5: full-length human PDE4D5 isozyme (Homo sapiens, UniProt Q08499); test: PDE4 IC50 determination by Scintillation Proximity Assay (SPA), full-length PDE4D5; format: biochemical; settings: cell lysate, [3H]cAMP SPA
# T3 construct: made in house; host or cells: baculovirus infected insect cells (pFastBacHT)
# Experimental: as §3, §1, §2
# [4] = test system: TNF-α release from whole blood cultures stimulated with LPS; test: IC50 by TNF alpha production upon stimulation of whole blood cultures with LPS; format: cell-based; settings: human whole blood (buffy coat) culture, 100 ng/ml LPS, 4 hours; read-out: h TNFα IC50
# Experimental: Compounds were assayed to generate IC50 numbers based on the inhibition of TNF-α release from whole blood cultures, using the following assay protocol (see Table 5 for compounds tested and results). Inhibition of PDE4B results in the inhibition of TNF-α release by whole blood cultures stimulated with lipopolysaccharide (LPS). The measurement of TNF-α release was used to assess compounds as PDE4B inhibitors.
# Compounds were provided in DMSO at 20 mM and 2 μl per well was added to one row of a dilution plate. Added 98 μl of RPMI 1640 media with 2.5% heat inactivated FBS to each well containing compound. The same media with 2% DMSO was prepared and 60 μl was added to each of the empty wells in the dilution plate. The compound was serially diluted 1:3 (30 μl to 60 μl of media) for a total of 8 concentrations per compound. Wells were also prepared with 50 μM roflumilast and piclamilast as 100% inhibition controls, and 2% DMSO in media was used as 0% inhibition control. A 20 μl aliquot of each sample was transferred to an assay plate in duplicate.
# Human buffy coat was obtained from the Stanford Medical School Blood Center and diluted with 7 volumes of RPMI 1640 media with 1% penicillin/streptomycin and 2.5% heat inactivated FBS. A 160 μl aliquot of the diluted blood was added to each well of the assay plates, mixed and incubated for 1 hour at 37° C. in 5% CO2. LPS (Sigma catalog number L2637) that had been diluted to 1 mg/ml in PBS and stored as 20 μl aliquots at −20° C. was thawed and diluted 1000× to 1 μg/ml. A 20 μl aliquot of this was added to each sample (final concentration 100 ng/ml LPS) after the 1 hour incubation. A background sample was prepared without addition of LPS as well. The samples were mixed on a shaker for one minute at 900 RPM and incubated for 4 hours at 37° C. in 5% CO2. The plates were then put on a shaker for one minute at 900 RPM, followed by centrifuging at 100×g for 10 minutes, deceleration setting of 5. The top 75 μl of supernatant was carefully pipetted to a new plate and frozen at −20° C.
# A 50 μl aliquot of incubation buffer (Biosource International Immunoassay Kit:Human TNF-α catalog number KHC3011) was added to each well of a plate coated with monoclonal antibody specific for hTNF-α (Biosource kit). The supernatant blood samples were thawed and a 50 μl aliquot along with 50 μl of diluent buffer (Biosource kit) were added to incubation buffer and the samples were incubated for 2 hours at room temperature. The samples were washed 4 times with 300 μl/well wash buffer (Biosource kit). A 100 μl aliquot of biotinylated anti-TNFalpha (Biosource kit) was added and the samples incubated for 1 hour at room temperature. The samples were washed 4 times with 300 μl/well wash buffer. A 100 μl aliquot of Streptavidin-HRP solution (BioSource kit) was added and the samples incubated for 30 minutes at room temperature. The samples were washed 4 times with 300 μl/well wash buffer. A 100 μl aliquot of Chromagen (Biosource kit) was added and the samples incubated in the dark for 30 minutes. A 100 μl aliquot of stop solution (2N H2SO4) was added to each sample and samples were read at 450 nm on a WallacVictor for 0.1 sec/well.
# T3 sequence (Q08499 with tags, fused parts or gaps isoform Q08499-6): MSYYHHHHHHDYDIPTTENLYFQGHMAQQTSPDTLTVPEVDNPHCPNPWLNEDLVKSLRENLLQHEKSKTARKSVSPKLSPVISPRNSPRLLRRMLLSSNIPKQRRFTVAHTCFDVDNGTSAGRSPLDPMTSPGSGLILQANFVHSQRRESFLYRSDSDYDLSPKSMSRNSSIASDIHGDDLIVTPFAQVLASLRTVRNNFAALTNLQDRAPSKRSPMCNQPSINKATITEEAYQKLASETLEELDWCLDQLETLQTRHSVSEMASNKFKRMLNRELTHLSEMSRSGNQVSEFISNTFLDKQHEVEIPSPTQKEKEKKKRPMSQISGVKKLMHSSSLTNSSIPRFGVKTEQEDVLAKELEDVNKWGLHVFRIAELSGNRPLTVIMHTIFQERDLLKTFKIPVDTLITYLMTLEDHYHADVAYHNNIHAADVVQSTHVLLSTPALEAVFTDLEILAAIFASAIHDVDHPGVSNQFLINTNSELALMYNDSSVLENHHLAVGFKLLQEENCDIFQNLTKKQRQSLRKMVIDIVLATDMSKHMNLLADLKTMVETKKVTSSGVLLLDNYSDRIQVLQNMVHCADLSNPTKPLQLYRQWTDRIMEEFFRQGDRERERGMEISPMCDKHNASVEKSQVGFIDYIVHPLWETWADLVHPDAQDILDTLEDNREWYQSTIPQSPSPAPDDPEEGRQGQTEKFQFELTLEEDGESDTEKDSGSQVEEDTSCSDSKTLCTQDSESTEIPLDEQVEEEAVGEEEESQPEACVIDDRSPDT
# T2 sequence (Q07343 with tags, fused parts or gaps isoform Q07343-2): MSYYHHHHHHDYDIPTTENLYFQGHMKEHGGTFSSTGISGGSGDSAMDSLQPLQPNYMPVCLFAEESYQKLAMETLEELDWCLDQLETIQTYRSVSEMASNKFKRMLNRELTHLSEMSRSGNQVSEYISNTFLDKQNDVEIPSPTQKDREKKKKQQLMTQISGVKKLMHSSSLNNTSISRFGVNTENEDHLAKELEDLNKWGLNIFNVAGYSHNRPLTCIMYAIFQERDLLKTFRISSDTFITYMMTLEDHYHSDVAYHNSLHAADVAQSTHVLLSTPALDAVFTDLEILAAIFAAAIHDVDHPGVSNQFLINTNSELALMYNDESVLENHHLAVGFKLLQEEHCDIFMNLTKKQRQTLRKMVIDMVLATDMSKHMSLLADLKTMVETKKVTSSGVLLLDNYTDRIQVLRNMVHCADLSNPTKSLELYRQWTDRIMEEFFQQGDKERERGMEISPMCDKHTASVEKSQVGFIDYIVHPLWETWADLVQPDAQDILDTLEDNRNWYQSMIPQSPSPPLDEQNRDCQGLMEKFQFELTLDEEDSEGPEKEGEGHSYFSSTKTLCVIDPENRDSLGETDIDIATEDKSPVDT
# T1 sequence (Q07343 324-700): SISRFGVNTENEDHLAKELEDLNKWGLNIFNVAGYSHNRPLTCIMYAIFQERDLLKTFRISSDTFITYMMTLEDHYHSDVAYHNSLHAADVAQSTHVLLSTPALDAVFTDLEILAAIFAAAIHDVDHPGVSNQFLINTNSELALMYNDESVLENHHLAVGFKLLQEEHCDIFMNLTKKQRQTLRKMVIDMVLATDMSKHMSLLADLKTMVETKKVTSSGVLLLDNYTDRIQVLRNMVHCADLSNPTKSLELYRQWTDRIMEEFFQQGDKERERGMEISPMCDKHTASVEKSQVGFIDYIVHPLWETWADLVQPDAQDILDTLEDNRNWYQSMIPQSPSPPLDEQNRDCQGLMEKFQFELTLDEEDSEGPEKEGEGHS
IC50 [1],IC50 [2],IC50 [3],IC50 [4],Structure (SMILES)
< 10 µM,< 10 µM,< 10 µM,≤ 10 µM,"COc1ccc(-c2cn(S(=O)(=O)Cc3cccc(Cl)c3)c3ncccc23)cc1OC [Compound 9, 1-(3-chloro-phenylmethanesulfonyl)-3-(3,4-dimethoxy-phenyl)-1H-pyrrolo[2,3-b]pyridine]"
< 10 µM,< 10 µM,< 10 µM,≤ 10 µM,"COc1ccc(-c2cn(C(=O)c3ccccc3)c3ncccc23)cc1OC [Compound 55, [3-(3,4-Dimethoxy-phenyl)-pyrrolo[2,3-b]pyridin-1-yl]phenylmethanone-amide]"
< 10 µM,< 10 µM,< 10 µM,≤ 10 µM,"COc1ccc(-c2cn(Cc3ccc(C#N)cc3)c3ncccc23)cc1OC [Compound 77, 4-[3-(3,4-Dimethoxy-phenyl)-pyrrolo[2,3-b]pyridin-1-ylmethyl]-benzonitrile]"
< 10 µM,< 10 µM,< 10 µM,≤ 10 µM,"COc1ccc(-c2cn(S(=O)(=O)c3cccc4cnccc34)c3ncccc23)cc1OC [Compound 14, 5-[3-(3,4-Dimethoxy-phenyl)-pyrrolo[2,3-b]pyridine-1-sulfonyl]-isoquinoline]"
< 10 µM,< 10 µM,< 10 µM,≤ 10 µM,"COc1ccc(-c2cn(C(=O)Nc3ccc(Cl)cc3)c3ncccc23)cc1OC [Compound 26, 3-(3,4-dimethoxy-phenyl)-pyrrolo[2,3-b]pyridine-1-carboxylic acid (4-chloro-phenyl)-amide]"
< 10 µM,< 10 µM,< 10 µM,≤ 10 µM,"COc1ccc(-c2cn(S(=O)(=O)c3cccc4ccccc34)c3ncccc23)cc1OC [Compound 16, 3-(3,4-Dimethoxy-phenyl)-1-(naphthalene-1-sulfonyl)-1H-pyrrolo[2,3-b]pyridine]"
< 10 µM,< 10 µM,< 10 µM,≤ 10 µM,"COc1ccc(-c2cn(Cc3ccccc3)c3ncccc23)cc1OC [Compound 75, 1-Benzyl-3-(3,4-dimethoxy-phenyl)-1H-pyrrolo[2,3-b]pyridine]"
< 10 µM,< 10 µM,< 10 µM,≤ 10 µM,"COc1ccc(-c2cn(C(=O)Nc3cccc(C(C)=O)c3)c3ncccc23)cc1OC [Compound 34, 3-(3,4-Dimethoxy-phenyl)-pyrrolo[2,3-b]pyridine-1-carboxylic acid (3-acetyl-phenyl)-amide]"
< 10 µM,< 10 µM,< 10 µM,≤ 10 µM,"COc1ccc(-c2cn(Cc3cccc(C(F)(F)F)c3)c3ncccc23)cc1OC [Compound 79, 3-(3,4-Dimethoxy-phenyl)-1-(3-trifluoromethyl-benzyl)-1H-pyrrolo[2,3-b]pyridine]"

# The remaining lines, values behind:
Structure (SMILES),IC50 [1],IC50 [2],IC50 [3],IC50 [4]
"COc1ccc(-c2cn(C(=O)c3ccc(C)c4ccccc34)c3ncccc23)cc1OC [Compound 114, [3-(3,4-Dimethoxy-phenyl)-pyrrolo[2,3-b]pyridin-1-yl]-(4-methyl-naphthalen-1-yl)-methanone]",< 10 µM,< 10 µM,< 10 µM,≤ 10 µM
"COc1ccc(NC(=O)n2cc(-c3ccc(OC)c(OC)c3)c3cccnc32)cc1Cl [Compound 27, 3-(3,4-Dimethoxy-phenyl)-pyrrolo[2,3-b]pyridine-1-carboxylic acid (3-chloro-4-methoxy-phenyl)-amide]",< 10 µM,< 10 µM,< 10 µM,≤ 10 µM
"COc1ccc(-c2cn(Cc3ccccc3-c3ccccc3)c3ncccc23)cc1OC [Compound 78, 1-Biphenyl-2-ylmethyl-3-(3,4-dimethoxy-phenyl)-1H-pyrrolo[2,3-b]pyridine]",< 10 µM,< 10 µM,< 10 µM,≤ 10 µM
"COc1ccc(-c2cn(C(C)=O)c3ncccc23)cc1OC [Compound 67, 1-[3-(3,4-Dimethoxy-phenyl)-pyrrolo[2,3-b]pyridin-1-yl]-ethanone]",< 10 µM,< 10 µM,< 10 µM,≤ 10 µM
"COc1cc(NC(=O)n2cc(-c3ccc(OC)c(OC)c3)c3cccnc32)cc(OC)c1 [Compound 29, 3-(3,4-Dimethoxy-phenyl)-pyrrolo[2,3-b]pyridine-1-carboxylic acid (3,5-dimethoxy-phenyl)-amide]",< 10 µM,< 10 µM,< 10 µM,≤ 10 µM
"COc1ccc(-c2cn(C(=O)c3cnccc3C(F)(F)F)c3ncccc23)cc1OC [Compound 57, [3-(3,4-Dimethoxy-phenyl)-pyrrolo[2,3-b]pyridin-1-yl]-(4-trifluoromethypyridn-3-yl)-methanone-amide]",< 10 µM,< 10 µM,< 10 µM,> 10 µM
"COc1ccc(-c2cn(C(=O)c3c(-c4ccccc4)cnc4ccccc34)c3ncccc23)cc1OC [Compound 117, [3-(3,4-Dimethoxy-phenyl)-pyrrolo[2,3-b]pyridin-1-yl]-(3-phenyl-quinolin-4-yl)-methanone]",< 10 µM,< 10 µM,< 10 µM,> 10 µM
"COc1ccc(-c2cn(C(=S)Nc3ccccc3)c3ncccc23)cc1OC [Compound 41, 3-(3,4-dimethoxy-phenyl)-pyrrolo[2,3-b]pyridine-1-carbothioic acid phenylamide]",< 10 µM,< 10 µM,< 10 µM,≤ 10 µM
"CCOc1ccccc1C(=O)n1ccc2c(-c3ccc(OC)c(OC)c3)ccnc21 [Compound 51, [4-(3,4-Dimethoxy-phenyl)-pyrrolo[2,3-b]pyridin-1-yl]-(2-ethoxy-phenyl)-methanone]",< 10 µM,< 10 µM,< 10 µM,> 10 µM
"CCOc1cc([N+](=O)[O-])ccc1C(=O)n1cc(-c2ccc(OC)c(OC)c2)c2cccnc21 [Compound 54, [3-(3,4-Dimethoxy-phenyl)-pyrrolo[2,3-b]pyridin-1-yl]-(2-ethoxy-4-nitro-phenyl)-methanone]",< 10 µM,< 10 µM,< 10 µM,> 10 µM
